Bounds are passed on as bounds.

The target of this assay is T1, glutathione S-transferase (GST)-linked full-length human Syk protein (Homo sapiens, UniProt P43405).
T1 construct: glutathione S-transferase (GST)-linked full-length human Syk protein; purchased Carna Biosciences; host or cells: Baculovirus expression system
Briefly: Syk enzyme assay. In kind it is biochemical. The following applies: 0.83 nM Syk, time-resolved fluorescence; read-out: IC50 of Syk-inhibitory activity. The protocol: A glutathione S-transferase (GST)-linked full-length human Syk protein (Carna Biosciences), which had been generated using a Baculovirus expression system, was used in the Syk enzyme assay.
7.5 μl of a reaction solution (0.83 nM Syk, 20 mM HEPES, 10 mM MgCl2, 50 mM NaCl, 2 mM DTT, 0.05% BSA, pH 7.0) containing a Syk protein and a predetermined concentration of a test compound was shaken for 2 minutes, and it was then left at rest at room temperature for 13 minutes. Thereafter, 0.5 μM substrate peptide (Biotin-[…]-NH2) and 5 μL of a solution containing 67.5 μM ATP were added to the reaction solution, and the obtained mixture was then shaken for 2 minutes. The reaction solution was further left at rest at room temperature for 40 minutes, so as to carry out an enzyme reaction.
Thereafter, 50 μL of a reaction termination solution [60 nM APC-SA, 0.45 μg/mL Eu-PT66, 30 mM HEPES (pH 7.0), 150 mM KF, 30 mM EDTA, 0.15% BSA, 0.075% Tween20] containing Allophycocyanin-Streptavidin (APC-SA; PerkinElmer) and an Eu-W1024-labeled anti-phosphotyrosine PT66 antibody (Eu-PT66; PerkinElmer) was added to the reaction solution to terminate the enzyme reaction. At the same time, the reaction solution was left at rest at room temperature for 1 hour, so as to carry out an antigen-antibody reaction. Thereafter, using EnVision (PerkinElmer), the level of time-resolved fluorescence was measured at 615 nm and 665 nm, so that the phosphorylation of the substrate peptide was measured.
The following are used in Table 5 to denote standards for evaluating IC50 of Syk-inhibitory activity. • A: Up to 10 nM • B: 10 to 50 nM • C: 50 to 100 nM
On to `Cc1ncc(Nc2nc(N[C@H](Cc3ccccc3)[C@H](C)N)c(F)cc2C(N)=O)cc1-n1nccn1` [Example 2-422, 6-(((2R,3S)-3-amino-1-phenylbutan-2-yl)amino)-5-fluoro-2-((6-methyl-5-(2H-1,2,3-triazol-2-yl)pyridin-3-yl)amino)nicotinamide], for which the IC50 (commonly the concentration needed to halve the response being measured) was in the range of 10 to 50 nM.
For `COCCn1ncc2c(Nc3nc(N[C@H](COC)[C@H](C)N)c(F)cc3C(N)=O)cccc21` [Example 2-309, 6-(((2S,3S)-3-amino-1-methoxybutan-2-yl)amino)-5-fluoro-2-((1-(2-methoxyethyl)-1H-indazol-4-yl)amino)nicotinamide], the concentration for half-maximal inhibition (IC50) lay in the range of 10 to 50 nM.
As to `CC[C@H](N)[C@@H](C)Nc1nc(Nc2ccc3[nH]nc(N(C)C)c3c2)c(C(N)=O)cc1F` [Example 2-495, 6-(((2R,3S)-3-aminopentan-2-yl)amino)-2-((3-(dimethylamino)-1H-indazol-5-yl)amino)-5-fluoronicotinamide], the IC50 was less than 10 nM.
As to `CCC[C@@H](Nc1nc(Nc2ccc3c(c2)c(OC(F)F)nn3CCOC)c(C(N)=O)cc1F)[C@H](C)N` [Example 2-353, 6-(((2S,3R)-2-aminohexan-3-yl)amino)-2-((3-(difluoromethoxy)-1-(2-methoxyethyl)-1H-indazol-5-yl)amino)-5-fluoronicotinamide], the half-maximal inhibitory concentration (IC50) was less than 10 nM.
With `CC(C)[C@@H](Nc1nc(Nc2ccc3cnn(C)c3c2)c(C(N)=O)cc1F)[C@H](C)N` [Example 2-102, 6-(((2S,3R)-2-amino-4-methylpentan-3-yl)amino)-5-fluoro-2-((1-methyl-1H-indazol-6-yl)amino)nicotinamide], the half-inhibitory concentration (IC50) lay in the range of 50 to 100 nM.
Then `COCCNc1nn(C)c2ccc(Nc3nc(N[C@@H]4CCCC[C@@H]4N)c(F)cc3C(N)=O)cc12` [Example 2-462, 6-(((1R,2S)-2-aminocyclohexyl)amino)-5-fluoro-2-((3-((2-methoxyethyl)amino)-1-methyl-1H-indazol-5-yl)amino)nicotinamide], with 10 to 50 nM; and `CC[C@@H](Nc1nc(Nc2cccc3c2cnn3CCOC)c(C(N)=O)cc1F)[C@H](C)N` [Example 2-304, 6-(((2S,3R)-2-aminopentan-3-yl)amino)-5-fluoro-2-((1-(2-methoxyethyl)-1H-indazol-4-yl)amino)nicotinamide], with less than 10 nM.
Then `Cc1nn(C)c2ncc(Nc3nc(N[C@H](CC(C)C)[C@H](C)N)c(F)cc3C(N)=O)cc12` [Example 2-245, 6-(((2S,3R)-2-amino-5-methylhexan-3-yl)amino)-2-((1,3-dimethyl-1H-pyrazolo[3,4-b]pyridin-5-yl)amino)-5-fluoronicotinamide], with less than 10 nM; and `CC[C@H](N)[C@@H](C)Nc1nc(Nc2cncc3c2cnn3CC(F)F)c(C(N)=O)cc1F` [Example 2-402, 6-(((2R,3S)-3-aminopentan-2-yl)amino)-2-((1-(2,2-difluoroethyl)-1H-pyrazolo[3,4-c]pyridin-4-yl)amino)-5-fluoronicotinamide], with less than 10 nM; and `CC(C)C[C@H](CN)Nc1nc(Nc2ccc3c(c2)c(N(C)C)nn3C)c(C(N)=O)cc1F` [Example 2-86, (R)-6-((1-amino-4-methylpentan-2-yl)amino)-2-((3-(dimethylamino)-1-methyl-1H-indazol-5-yl)amino)-5-fluoronicotinamide], with less than 10 nM.
The result for `CCOc1ncc(Nc2nc(N[C@H](CC)[C@H](C)N)c(F)cc2C(N)=O)cc1-n1ccnn1` [Example 2-206, 6-(((2S,3R)-2-aminopentan-3-yl)amino)-2-((6-ethoxy-5-(1H-1,2,3-triazol-1-yl)pyridin-3-yl)amino)-5-fluoronicotinamide] reads 10 to 50 nM.
As to `COCCn1ncc2cc(Nc3nc(N[C@H](c4ccc(F)c(F)c4)[C@H](C)N)c(F)cc3C(N)=O)ccc21` [Example 2-554, 6-(((1R,2S)-2-amino-1-(3,4-difluorophenyl)propyl)amino)-5-fluoro-2-((1-(2-methoxyethyl)-1H-indazol-5-yl)amino)nicotinamide], the IC50 was less than 10 nM.
Then `COCCOc1ncc(Nc2nc(N[C@H](CC(C)C)[C@H](C)N)c(F)cc2C(N)=O)cc1F` [Example 2-119, 6-(((2S,3R)-2-amino-5-methylhexan-3-yl)amino)-5-fluoro-2-((5-fluoro-6-(2-methoxyethoxy)pyridin-3-yl)amino)nicotinamide], with 10 to 50 nM; and `COc1nn(C)c2ccc(Nc3nc(N[C@H](C(C)C)[C@H](C)N)c(F)cc3C(N)=O)cc12` [Example 2-81, 6-(((2S,3R)-2-amino-4-methylpentan-3-yl)amino)-5-fluoro-2-((3-methoxy-1-methyl-1H-indazol-5-yl)amino)nicotinamide], with 10 to 50 nM; and `CNc1nn(C)c2ccc(Nc3nc(N[C@H](C4CC4)[C@H](C)N)c(F)cc3C(N)=O)cc12` [Example 2-498, 6-(((1R,2S)-2-amino-1-cyclopropylpropyl)amino)-5-fluoro-2-((1-methyl-3-(methylamino)-1H-indazol-5-yl)amino)nicotinamide], with less than 10 nM.
For `CC[C@H](N)[C@@H](C)Nc1nc(Nc2ccc3c(c2)c(OC(F)F)nn3CCOC)c(C(N)=O)cc1F` [Example 2-544, 6-(((2R,3S)-3-aminopentan-2-yl)amino)-2-((3-(difluoromethoxy)-1-(2-methoxyethyl)-1H-indazol-5-yl)amino)-5-fluoronicotinamide], the half-maximal inhibitory concentration (IC50) was in the range of 10 to 50 nM.
The result for `CC[C@H](N)[C@@H](C)Nc1nc(Nc2ccc3c(c2)c(OC(F)F)nn3C)c(C(N)=O)cc1F` [Example 2-351, 6-(((2R,3S)-3-aminopentan-2-yl)amino)-2-((3-(difluoromethoxy)-1-methyl-1H-indazol-5-yl)amino)-5-fluoronicotinamide] reads less than 10 nM; that for `Cc1ncc(Nc2nc(NC3[C@@H](OCc4ccccc4)CCC[C@@H]3N)c(F)cc2C(N)=O)cc1-n1nccn1` (mixture of isomers) [Example 2-484, Mixture of 6-((2-amino-6-(benzyloxy)cyclohexyl)amino)-5-fluoro-2-((6-methyl-5-(2H-1,2,3-triazol-2-yl)pyridin-3-yl)amino)nicotinamide (1S,2S,6S),(1R,2R,6R)], 10 to 50 nM; that for `CC[C@H](N)[C@@H](C)Nc1nc(Nc2cc(F)cc3c2cnn3CC)c(C(N)=O)cc1F` [Example 2-373, 6-(((2R,3S)-3-aminopentan-2-yl)amino)-2-((1-ethyl-6-fluoro-1H-indazol-4-yl)amino)-5-fluoronicotinamide], less than 10 nM.
The result for `CC[C@H](N)[C@H](Nc1nc(Nc2ccc3c(c2)c(C)nn3C)c(C(N)=O)cc1F)C1CC1` [Example 2-545, 6-(((1R,2S)-2-amino-1-cyclopropylbutyl)amino)-2-((1,3-dimethyl-1H-indazol-5-yl)amino)-5-fluoronicotinamide] reads less than 10 nM.
Then `CCn1ncc2c(Nc3nc(N[C@H](c4cc(F)cc(F)c4)[C@H](C)N)c(F)cc3C(N)=O)cccc21` [Example 2-551, 6-(((1R,2S)-2-amino-1-[3,5-difluorophenyl)propyl)amino)-2-((1-ethyl-1H-indazol-4-yl)amino)-5-fluoronicotinamide], with 10 to 50 nM; and `CC[C@@H](Nc1nc(Nc2ccnc(OCCOC)c2)c(C(N)=O)cc1F)[C@H](C)N` [Example 2-34, 6-(((2S,3R)-2-aminopentan-3-yl)amino)-5-fluoro-2-((2-(2-methoxyethoxy)pyridin-4-yl)amino)nicotinamide], with 10 to 50 nM; and `Cc1ncc(Nc2nc(N[C@H](c3cccc(F)c3)[C@H](C)N)c(F)cc2C(N)=O)cc1F` [Example 2-453, 6-(((1R,2S)-2-amino-1-(3-fluorophenyl)propyl)amino)-5-fluoro-2-((5-fluoro-6-methylpyridin-3-yl)amino)nicotinamide], with less than 10 nM.
As to `COCCn1nc(OC(F)F)c2cc(Nc3nc(N[C@H](C4CCC4)[C@H](C)N)c(F)cc3C(N)=O)ccc21` [Example 2-543, 6-(((1R,2S)-2-amino-1-cyclobutylpropyl)amino)-2-((3-(difluoromethoxy)-1-(2-methoxyethyl)-1H-indazol-5-yl)amino)-5-fluoronicotinamide], the IC50 was less than 10 nM.
Then `CC[C@@H](Nc1nc(Nc2cnc3c(c2)c(N(C)C)nn3C)c(C(N)=O)cc1F)[C@H](C)N` [Example 2-288, 6-(((2S,3R)-2-aminopentan-3-yl)amino)-2-((3-(dimethylamino)-1-methyl-1H-pyrazolo[3,4-b]pyridin-5-yl)amino)-5-fluoronicotinamide], with 10 to 50 nM; and `C[C@H](N)[C@H](Nc1nc(Nc2cnc(N3CCOCC3)c(F)c2)c(C(N)=O)cc1F)c1ccc(Cl)s1` [Example 2-511, 6-(((1S,2S)-2-amino-1-(5-chlorothiophen-2-yl)propyl)amino)-5-fluoro-2-((5-fluoro-6-morpholinopyridin-3-yl)amino)nicotinamide], with 10 to 50 nM.

These data come from patent publication US9051310B2, “Nicotinamide derivative or salt thereof” (FUJIFILM Corporation, priority 2011, dated 2015).
